In ChEMBL document CHEMBL3763073 (Eur J Med Chem, 2016):

Experiments:
[1] = molecular target: T1, Oxytocin receptor (Homo sapiens, UniProt P30559); test: Antagonist activity at human oxytocin receptor expressed in HEK293 cells assessed as inhibition of oxytocin induced IP1 accumulation pretreated for 30 mins measured 1 hr post Ab-Cryptate and IP1-d2 addition by HTRF assay; type: functional, cell-based
T1 sequence (P30559 whole entry): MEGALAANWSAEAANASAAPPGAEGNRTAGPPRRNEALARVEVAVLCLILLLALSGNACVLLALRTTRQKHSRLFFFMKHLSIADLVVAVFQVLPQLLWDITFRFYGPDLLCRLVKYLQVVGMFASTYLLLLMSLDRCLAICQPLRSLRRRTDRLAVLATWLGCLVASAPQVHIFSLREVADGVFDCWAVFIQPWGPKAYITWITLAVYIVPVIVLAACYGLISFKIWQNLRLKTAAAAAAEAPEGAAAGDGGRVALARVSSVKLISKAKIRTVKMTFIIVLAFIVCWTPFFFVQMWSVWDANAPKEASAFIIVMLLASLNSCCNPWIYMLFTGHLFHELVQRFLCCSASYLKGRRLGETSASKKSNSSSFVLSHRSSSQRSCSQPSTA

[2] = molecular target: T2, Vasopressin V1a receptor (Homo sapiens, UniProt P37288); test: Agonist activity at human vasopressin 1a receptor expressed in HEK293 cells assessed as increase in IP1 accumulation preincubated for 1 hr followed by addition of Ab-Cryptate and IP1-d2 by HTRF assay; type: functional, cell-based
[3] = molecular target: T2, Vasopressin V1a receptor; test: Displacement of [3H]-vasopressin from human vasopressin 1a receptor expressed in HEK293 cells after 90 mins by microbeta 2 microplate-reader method; type: cell-based
[4] = molecular target: T2, Vasopressin V1a receptor; test: Antagonist activity at human vasopressin 1a receptor expressed in HEK293 cells assessed as inhibition of vasopressin induced IP1 accumulation pretreated for 30 mins measured 1 hr post Ab-Cryptate and IP1-d2 addition by HTRF assay; type: functional, cell-based
[5] = molecular target: T1, Oxytocin receptor; test: Agonist activity at human oxytocin receptor expressed in HEK293 cells assessed as increase in IP1 accumulation preincubated for 1 hr followed by addition of Ab-Cryptate and IP1-d2 by HTRF assay; type: functional, cell-based
[6] = molecular target: T1, Oxytocin receptor; test: Displacement of [3H]-oxytocin from human oxytocin receptor expressed in HEK293 cells after 90 mins by microbeta 2 microplate reader analysis; type: cell-based

T2 sequence (P37288 whole entry): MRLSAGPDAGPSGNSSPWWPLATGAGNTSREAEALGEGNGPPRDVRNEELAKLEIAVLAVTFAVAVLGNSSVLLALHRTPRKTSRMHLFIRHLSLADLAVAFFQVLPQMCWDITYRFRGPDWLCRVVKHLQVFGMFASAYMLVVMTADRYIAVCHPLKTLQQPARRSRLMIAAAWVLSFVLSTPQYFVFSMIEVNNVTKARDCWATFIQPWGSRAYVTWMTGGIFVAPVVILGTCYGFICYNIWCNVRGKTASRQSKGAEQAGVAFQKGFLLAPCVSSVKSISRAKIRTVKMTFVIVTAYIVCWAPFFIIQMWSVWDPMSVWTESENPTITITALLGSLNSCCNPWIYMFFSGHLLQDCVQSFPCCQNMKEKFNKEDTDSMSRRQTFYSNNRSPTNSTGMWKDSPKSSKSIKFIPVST

Row | SMILES | IC50 [1] [µM] | EC50 [2] [µM] | Ki [3] [µM] | IC50 [4] [µM] | EC50 [5] [µM] | Ki [6] [µM]
1 | COc1cc(CN2CCN(CCCCCCC(=O)N3Cc4cnn(C)c4Nc4ccccc43)CC2)cc(OC)c1 | > 10 | > 10 | 0.195 | > 10 | > 10 | > 10
2 | Cn1ncc2c1Nc1ccccc1N(C(=O)CCCCCCN1CCN(Cc3cc(O)cc(O)c3)CC1)C2 | > 10 | > 10 | 0.13 | > 10 | > 10 | > 10
3 | COc1cc(CN2CCN(CCCCC(=O)N3Cc4cnn(C)c4Nc4ccccc43)CC2)cc(OC)c1 | > 10 | > 10 | 0.409 | > 10 | > 10 | > 10
4 | Cn1ncc2c1Nc1ccccc1N(C(=O)CCCCCCCN1CCN(Cc3cc(O)cc(O)c3)CC1)C2 | > 10 | > 10 | 0.064 | 4.67 | > 10 | 8.35
5 | COc1cc(CN2CCN(C(=O)NCc3ccc(C(=O)N4Cc5cnn(C)c5Nc5ccccc54)cc3C)CC2)cc(OC)c1 | 4.13 | > 10 | 0.062 | 1.11 | > 10 | 0.801
6 | Cn1ncc2c1Nc1ccccc1N(C(=O)CCCCN1CCN(Cc3cc(O)cc(O)c3)CC1)C2 | > 10 | > 10 | 0.466 | > 10 | > 10 | > 10
7 | COc1cc(CN2CCN(CCCCCC(=O)N3Cc4cnn(C)c4Nc4ccccc43)CC2)cc(OC)c1 | > 10 | > 10 | 0.266 | 8.2 | > 10 | 7.45
8 | Cn1ncc2c1Nc1ccccc1N(C(=O)CCCCCN1CCN(Cc3cc(O)cc(O)c3)CC1)C2 | > 10 | > 10 | 0.449 | > 10 | > 10 | > 10
9 | COc1cc(CN2CCN(CCCCCCCC(=O)N3Cc4cnn(C)c4Nc4ccccc43)CC2)cc(OC)c1 | > 10 | > 10 | 0.248 | 7.67 | > 10 | > 10
